Measurements taken from PMC7960510 (Immunity, 2021).

Tests used:
Type in all cases: cell-based, human
[1] = system: Jurkat cells expressing TCR2 (Jurkat-TCR2); conditions: CD69; T2 cells pulsed with peptide, 2 μM, 18 h
H1395 lung cancer cells = test: Cell-mediated cytotoxicity of H1395 lung cancer cells by TCR2 primary T cells; conditions: peptide-pulsed A*02+ H1395 cells, TMEM9-mer compared to LMP9-mer
[2] = system: Jurkat cells expressing TCR16; conditions: HLA-A*02:01, T2 cells pulsed with 9-mers
Jurkat-TCR15 clone = test: Stimulation of Jurkat-TCR15 clone; conditions: HLA-A*02 context; TCR15 CDR3β […]
[3] = system: primary T cells expressing TCR2; conditions: HLA-A*02+ 293T cells overexpressing full-length protein, 1:1 ratio, 18 h

Molecule	stimulation of Jurkat-TCR2 cells (in words) [1]	also measured
CLGGLLTMV [LMP9-mer]	could all stimulate the Jurkat-TCR2 cells	
ALGGLLTPL [TMEM9-mer]	could all stimulate the Jurkat-TCR2 cells	cell-mediated cytotoxicity (in words) (H1395 lung cancer cells): weaker targets for cell-mediated cytotoxicity compared to those with LMP9-mer; recognition by TCR16 (in words) [2]: recognized TMEM9-mer but not the microbial antigens
LLGGLLTMV [EntS9-mer]	could all stimulate the Jurkat-TCR2 cells	
AMGGLLTQLAM	stimulated Jurkat cells expressing TCR2	
KLGGLLTMVGV	stimulated Jurkat cells expressing TCR2	
LLGTLVAML		stimulation of Jurkat-TCR15 clone (in words) (Jurkat-TCR15 clone): also stimulated the Jurkat-TCR15 clone
TMEM161A: full-length protein TMEM161A expressed in HLA-A*02+ 293T cells (protein, UniProt Q9NX61 1-479, looked up, full-length) MAVLGVQLVVTLLTATLMHRLAPHCSFARWLLCNGSLFRYKHPSEEELRALAGKPRPRGRKERWANGLSEEKPLSVPRDAPFQLETCPLTTVDALVLRFFLEYQWFVDFAVYSGGVYLFTEAYYYMLGPAKETNIAVFWCLLTVTFSIKMFLTVTRLYFSAEEGGERSVCLTFAFLFLLLAMLVQVVREETLELGLEPGLASMTQNLEPLLKKQGWDWALPVAKLAIRVGLAVVGSVLGAFLTFPGLRLAQTHRDALTMSEDRPMLQFLLHTSFLSPLFILWLWTKPIARDFLHQPPFGETRFSLLSDSAFDSGRLWLLVVLCLLRLAVTRPHLQAYLCLAKARVEQLRREAGRIEAREIQQRVVRVYCYVTVVSLQYLTPLILTLNCTLLLKTLGGYSWGLGPAPLLSPDPSSASAAPIGSGEDEVQQTAARIAGALGGLLTPLFLRGVLAYLIWWTAACQLLASLFGLYFHQHLAGS		stimulation of TCR2-T cells by full-length protein (in words) [3]: appearing to be the weakest stimulator
